Values of other authors as cited in patent US20160213705A1, “METHOD TO TREAT ONYCHOMYCOSIS BY HYDROXYPROPYL CHITOSAN” (POLICHEM S.A., priority 2013, published 2016).
Values joined by “and” are separate entries in the source; they are usually repeats but may differ in a detail not shown here. Equal entries are not always repeated.

Tests used:
onychomycosis [1] = details: topical; according to the different vehicles used
onychomycosis [2] = details: oral route

| SMILES | cure rate (onychomycosis [1]) | complete cure, proportion of patients (onychomycosis [2]) |
| --- | --- | --- |
| Cc1cc(C2CCCCC2)n(O)c(=O)c1 [ciclopirox] | 12.7% and 5.8% |  |
| CN(C/C=C/C#CC(C)(C)C)Cc1cccc2ccccc12 [terbinafine] |  | 38% |
